Assays:
[1] = system: cGMP; experiment: Phase I, healthy male subjects, inhaled once daily for 14 days: cGMP; type: in vivo, human; conditions: for cGMP changes from baseline: 1000 μg inhaled once daily for 14 days, n = 17; for cGMP concntration over time (mean +/− standard deviation): 1000 μg inhaled once daily, 14 days
Experimental: Healthy white male subjects, aged 18 to 45 years and with a body mass index (BMI) above/equal 18.5 and below/equal 29.9 kg/m2 were treated in a clinical pharmacological phase I study for 14 days with inhaled once daily doses of 1000 μg (nominal dose) or Placebo of dry powder of example 4. […] Drug activity/target engagement in healthy men was controlled in the healthy subjects by analysing blood samples for cGMP.

[2] = Phase I, single inhaled, inhaled + charcoal, oral and intravenous doses in healthy male subjects: plasma concentrations, lung deposition; type: in vivo, human
Experimental: Healthy white male subjects, aged 18 to 45 years with a body mass index (BMI) above/equal 18.5 and below/equal 29.9 kg/m^2 were treated in a clinical phase I study with a single inhaled dose of 1000 μg (nominal dose), a single inhaled dose of 1000 μg (nominal dose)+charcoal block, a single oral dose of 1000 μg and a single infusion over 2 h of 100 μg of example 4. As the bioavailability of an intravenous application is generally 100% per definition and therefore higher than in case of an oral or […], the intravenous dose was carefully selected to be lower than the oral and inhaled dose to avoid higher plasma concentration resulting from a high IV dose and potential side effect, e.g. reduction in blood pressure or syncope. Therefore, 100 μg was selected for the IV dose in this investigation. Seven days washout period between treatments was applied. The subjects swallowed a solution for oral administration (20 ml comprising 1000 μg see under C-2, table 49a). The subjects received a solution as a single infusion over 2 hours (2 ml comprising 100 μg see under C-2 table 49a). The subjects inhaled the drug powder from capsules (see under C-1, tables 17 and 20) inserted into a handheld inhalation device by one deep inhalative breath. After inhalation of the dry powder formulation of this drug, some parts of the nominal dose remain in the capsule and the device, the dose which reaches the body at the mouthpiece is called the emitted dose. The emitted dose can be calculated/determined as followed: nominal dose−(remains in the capsule+remains in the device). After inhalation of the dry powder, one part of the emitted dose enters the gastrointestinal tract (GT and is called the oral part of the emitted dose, the other part of the emitted dose which reaches the lung through the respiratory airways is called the lung dose and represents the lung deposited dose. As the lung is the target organ of the effect, the lung deposited dose must be quantified. Lung deposition can be indirectly estimated, by determining the part of the nominal dose which reaches the GIT and the remains in the capsule and the device. To investigate and determine lung deposition, the following investigations were done (see also FIG. 59): • 1—Inhaled application of a single dose of 1000 μg of the dry powder. • 2—Inhaled application of a single dose of 1000 μg of the dry powder in combination with oral administration of charcoal block. The charcoal block capped the oral absorption of GIT part of the dose, as example 4 completely adsorbed to charcoal block. This implies that the concentrations of example 4 measured reach the systemic circulation via the lung. • 3—Administration of a single oral dose of 1000 μg example 4 to determine the oral absorption. • 4—Administration of a 2 h infusion of example 4 to investigate the elimination.

## O=C(O)c1ccc(CCN(CCc2ccccc2OCc2ccc(-c3ccc(C(F)(F)F)cc3)cc2Cl)[C@H]2CCCc3nc(C(=O)O)ccc32)cc1 [Example 4, (5S)—{[2-(4-Carboxyphenyl)ethyl][2-(2-{[3-chloro-4′-(trifluoromethyl)biphenyl-4-yl]methoxy}phenyl)-ethyl]amino}-5,6,7,8-tetrahydroquinoline-2-carboxylic Acid as Monohydrate I]
[1]; 0 D 02 H 00 M
  cGMP changes from baseline: 4840 pmol/L
  cGMP concntration over time (mean +/− standard deviation): 9170 pmol/L
[1]; 0 D 04 H 00 M
  cGMP changes from baseline: 7290 pmol/L
  cGMP concntration over time (mean +/− standard deviation): 11600 pmol/L
[1]; 0 D 06 H 00 M
  cGMP changes from baseline: 9950 pmol/L
  cGMP concntration over time (mean +/− standard deviation): 14300 pmol/L
[1]; 0 D 08 H 00 M
  cGMP changes from baseline: 10600 pmol/L
  cGMP concntration over time (mean +/− standard deviation): 14900 pmol/L
[1]; 0 D 12 H 00 M
  cGMP changes from baseline: 7530 pmol/L
  cGMP concntration over time (mean +/− standard deviation): 11800 pmol/L
[1]; 0 D 15 H 00 M
  cGMP changes from baseline: 6740 pmol/L
  cGMP concntration over time (mean +/− standard deviation): 11100 pmol/L
[1]; 1 D 00 H 00 M
  cGMP changes from baseline: 2980 pmol/L
  cGMP concntration over time (mean +/− standard deviation): 7310 pmol/L
[1]; 2 D 00 H 00 M
  cGMP changes from baseline: 4550 pmol/L
  cGMP concntration over time (mean +/− standard deviation): 8880 pmol/L
[1]; 2 D 03 H 00 M
  cGMP changes from baseline: 13000 pmol/L
  cGMP concntration over time (mean +/− standard deviation): 17300 pmol/L
[1]; 2 D 08 H 00 M
  cGMP changes from baseline: 16400 pmol/L
  cGMP concntration over time (mean +/− standard deviation): 20800 pmol/L
[1]; 2 D 12 H 00 M
  cGMP changes from baseline: 12600 pmol/L
  cGMP concntration over time (mean +/− standard deviation): 16900 pmol/L
[1]; 3 D 00 H 00 M (trough prior inhalation)
  cGMP changes from baseline: 5160 pmol/L
[1]; 4 D 00 H 00 M (trough prior inhalation)
  cGMP changes from baseline: 6360 pmol/L
[1]; 5 D 00 H 00 M (trough prior inhalation)
  cGMP changes from baseline: 5920 pmol/L
[1]; 6 D 00 H 00 M
  cGMP changes from baseline: 5090 pmol/L
  cGMP concntration over time (mean +/− standard deviation): 9420 pmol/L
[1]; 6 D 03 H 00 M
  cGMP changes from baseline: 13400 pmol/L
  cGMP concntration over time (mean +/− standard deviation): 17700 pmol/L
[1]; 6 D 08 H 00 M
  cGMP changes from baseline: 20100 pmol/L
  cGMP concntration over time (mean +/− standard deviation): 24500 pmol/L
[1]; 6 D 12 H 00 M
  cGMP changes from baseline: 13900 pmol/L
  cGMP concntration over time (mean +/− standard deviation): 18200 pmol/L
[1]; 7 D 00 H 00 M (trough prior inhalation)
  cGMP changes from baseline: 6180 pmol/L
[1]; 8 D 00 H 00 M (trough prior inhalation)
  cGMP changes from baseline: 6200 pmol/L
[1]; 9 D 00 H 00 M (trough prior inhalation)
  cGMP changes from baseline: 6580 pmol/L
[1]; 10 D 00 H 00 M
  cGMP changes from baseline: 6450 pmol/L
  cGMP concntration over time (mean +/− standard deviation): 10800 pmol/L
[1]; 10 D 03 H 00 M
  cGMP changes from baseline: 12700 pmol/L
  cGMP concntration over time (mean +/− standard deviation): 17100 pmol/L
[1]; 10 D 08 H 00 M
  cGMP changes from baseline: 17500 pmol/L
  cGMP concntration over time (mean +/− standard deviation): 21900 pmol/L
[1]; 10 D 12 H 00 M
  cGMP changes from baseline: 13000 pmol/L
  cGMP concntration over time (mean +/− standard deviation): 17300 pmol/L
[1]; 11 D 00 H 00 M (trough prior inhalation)
  cGMP changes from baseline: 6940 pmol/L
[1]; 12 D 00 H 00 M (trough prior inhalation)
  cGMP changes from baseline: 8060 pmol/L
[1]; 12 D 22 H 00 M
  cGMP changes from baseline: 6950 pmol/L
  cGMP concntration over time (mean +/− standard deviation): 11300 pmol/L
[1]; 13 D 02 H 00 M (after last inhalation)
  cGMP changes from baseline: 9120 pmol/L
[1]; 13 D 04 H 00 M (after last inhalation)
  cGMP changes from baseline: 12900 pmol/L
[1]; 13 D 06 H 00 M (after last inhalation)
  cGMP changes from baseline: 17000 pmol/L
[1]; 13 D 08 H 00 M (after last inhalation)
  cGMP changes from baseline: 17700 pmol/L
[1]; 13 D 12 H 00 M (after last inhalation)
  cGMP changes from baseline: 12900 pmol/L
[1]; 13 D 15 H 00 M (after last inhalation)
  cGMP changes from baseline: 12100 pmol/L
[1]; 14 D 00 H 00 M (after last inhalation)
  cGMP changes from baseline: 5410 pmol/L
[1]; 15 D 00 H 00 M (after last inhalation)
  cGMP changes from baseline: 2520 pmol/L
[1]; 15 D 12 H 00 M (after last inhalation)
  cGMP changes from baseline: 3040 pmol/L
[1]; 16 D 00 H 00 M (after last inhalation)
  cGMP changes from baseline: 2000 pmol/L
[1]; 16 D 12 H 00 M (after last inhalation)
  cGMP changes from baseline: 2410 pmol/L
[1]; 17 D 00 H 00 M (after last inhalation)
  cGMP changes from baseline: 400 pmol/L
[1]; 20 D 00 H 00 M (after last inhalation)
  cGMP changes from baseline: 1220 pmol/L
[1]; FOLLOW-UP
  cGMP changes from baseline: 1520 pmol/L
  cGMP concntration over time (mean +/− standard deviation): 5850 pmol/L
[1]; −0 D 09 H 00 M (pretreatment day)
  cGMP changes from baseline: 224 pmol/L
[1]; −0 D 12 H 00 M (pretreatment day)
  cGMP changes from baseline: 306 pmol/L
[1]; −0 D 16 H 00 M (pretreatment day)
  cGMP changes from baseline: 676 pmol/L
[1]; −0 D 18 H 00 M (pretreatment day)
  cGMP changes from baseline: −252.9 +/− 1345.9
[1]; −0 D 20 H 00 M (pretreatment day)
  cGMP changes from baseline: −952.9 +/− 1984.7
[1]; −0 D 22 H 00 M (pretreatment day)
  cGMP changes from baseline: −100.0 +/− 1403.1
[1]; 3 D 00 H 00 M
  cGMP concntration over time (mean +/− standard deviation): 9490 pmol/L
[1]; 4 D 00 H 00 M
  cGMP concntration over time (mean +/− standard deviation): 10700 pmol/L
[1]; 5 D 00 H 00 M
  cGMP concntration over time (mean +/− standard deviation): 10300 pmol/L
[1]; 7 D 00 H 00 M
  cGMP concntration over time (mean +/− standard deviation): 10500 pmol/L
[1]; 8 D 00 H 00 M
  cGMP concntration over time (mean +/− standard deviation): 10500 pmol/L
[1]; 9 D 00 H 00 M
  cGMP concntration over time (mean +/− standard deviation): 10900 pmol/L
[1]; 11 D 00 H 00 M
  cGMP concntration over time (mean +/− standard deviation): 11300 pmol/L
[1]; 12 D 00 H 00 M
  cGMP concntration over time (mean +/− standard deviation): 12400 pmol/L
[1]; 13 D 02 H 00 M
  cGMP concntration over time (mean +/− standard deviation): 13400 pmol/L
[1]; 13 D 04 H 00 M
  cGMP concntration over time (mean +/− standard deviation): 17300 pmol/L
[1]; 13 D 06 H 00 M
  cGMP concntration over time (mean +/− standard deviation): 21400 pmol/L
[1]; 13 D 08 H 00 M
  cGMP concntration over time (mean +/− standard deviation): 22000 pmol/L
[1]; 13 D 12 H 00 M
  cGMP concntration over time (mean +/− standard deviation): 17200 pmol/L
[1]; 13 D 15 H 00 M
  cGMP concntration over time (mean +/− standard deviation): 16400 pmol/L
[1]; 14 D 00 H 00 M
  cGMP concntration over time (mean +/− standard deviation): 9740 pmol/L
[1]; 15 D 00 H 00 M
  cGMP concntration over time (mean +/− standard deviation): 6850 pmol/L
[1]; 15 D 12 H 00 M
  cGMP concntration over time (mean +/− standard deviation): 7370 pmol/L
[1]; 16 D 00 H 00 M
  cGMP concntration over time (mean +/− standard deviation): 6330 pmol/L
[1]; 16 D 12 H 00 M
  cGMP concntration over time (mean +/− standard deviation): 6740 pmol/L
[1]; 17 D 00 H 00 M
  cGMP concntration over time (mean +/− standard deviation): 4730 pmol/L
[1]; 20 D 00 H 00 M
  cGMP concntration over time (mean +/− standard deviation): 5520 pmol/L
[1]; −0 D 02 H 00 M
  cGMP concntration over time (mean +/− standard deviation): 4330 pmol/L
[1]; −0 D 09 H 00 M
  cGMP concntration over time (mean +/− standard deviation): 5490 pmol/L
[1]; −0 D 12 H 00 M
  cGMP concntration over time (mean +/− standard deviation): 5570 pmol/L
[1]; −0 D 16 H 00 M
  cGMP concntration over time (mean +/− standard deviation): 5940 pmol/L
[1]; −0 D 18 H 00 M
  cGMP concntration over time (mean +/− standard deviation): 5010 pmol/L
[1]; −0 D 20 H 00 M
  cGMP concntration over time (mean +/− standard deviation): 4310 pmol/L
[1]; −0 D 22 H 00 M
  cGMP concntration over time (mean +/− standard deviation): 5160 pmol/L
[1]; −1 D 02 H 00 M
  cGMP concntration over time (mean +/− standard deviation): 5260 pmol/L
[1]; 1000 μg once daily inhalation
  steady state of cGMP concentration reached after: ≤ 11 days
[2]; dry powder inhaled with charcoal
  absolute bioavailability: 16.3%
[2]; dry powder inhaled without charcoal
  absolute bioavailability: 18.8%
[2]; inhaled 1000 μg with charcoal
  elimination half-life: 16.1 h
[2]; inhaled 1000 μg without charcoal
  elimination half-life: 15.1 h
[2]; intravenous, 100 μg infusion over 2 h
  elimination half-life: 0.26 h
[2]; oral, 1000 μg
  elimination half-life: 4.43 h
